Experimental data: publication PMC12005229, “Final results from the phase Ia/Ib study of the novel bromodomain and extra-terminal domain inhibitor, BI 894999, in patients with advanced solid tumors or diffuse large B-cell lymphoma” (ESMO Open, 2025)

Tested on: patients with advanced solid tumors (SCLC, CRC, mCRPC, NUT carcinoma)
Test: phase Ib expansion: DLTs, adverse events, exposure
[1] = phase Ib, NUT carcinoma total n = 42

From the text: The primary endpoint for the phase Ib expansion was the number of patients who experienced DLTs during the study treatment period.
For fatigue at baseline, there had to be an increase of two or more grades.

SMILES: CNc1nc(-c2nc3ccc(N4CCN(C)CC4)cc3n2Cc2ccccc2)cn2c(C)nnc12 [BI 894999]
- Number of patients with treatment-related AEs [1]: 32 (76.2) n (%)
- Thrombocytopenia, treatment-related AE, any grade [1]: 10 (23.8) n (%)
- Thrombocytopenia, treatment-related AE, grade ≥3 [1]: 6 (14.3) n (%)
- Vomiting, treatment-related AE, any grade [1]: 0 n (%)
- Vomiting, treatment-related AE, grade ≥3 [1]: 0 n (%)
- Weight decrease, treatment-related AE, any grade [1]: 0 n (%)
- Weight decrease, treatment-related AE, grade ≥3 [1]: 0 n (%)
- ALT increase, treatment-related AE, any grade (phase Ib, SCLC n = 12): 1 (8.3) n (%)
- ALT increase, treatment-related AE, grade ≥3 (phase Ib, SCLC n = 12): 0 n (%)
- Anemia, treatment-related AE, any grade (phase Ib, SCLC n = 12): 0 n (%)
- Anemia, treatment-related AE, grade ≥3 (phase Ib, SCLC n = 12): 0 n (%)
- Decreased appetite, treatment-related AE, any grade (phase Ib, SCLC n = 12): 2 (16.7) n (%)
- Decreased appetite, treatment-related AE, grade ≥3 (phase Ib, SCLC n = 12): 1 (8.3) n (%)
- Decreased platelet count, treatment-related AE, any grade (phase Ib, SCLC n = 12): 1 (8.3) n (%)
- Decreased platelet count, treatment-related AE, grade ≥3 (phase Ib, SCLC n = 12): 0 n (%)
- Diarrhea, treatment-related AE, any grade (phase Ib, SCLC n = 12): 3 (25.0) n (%)
- Diarrhea, treatment-related AE, grade ≥3 (phase Ib, SCLC n = 12): 0 n (%)
- Dysgeusia, treatment-related AE, any grade (phase Ib, SCLC n = 12): 3 (25.0) n (%)
- Dysgeusia, treatment-related AE, grade ≥3 (phase Ib, SCLC n = 12): 0 n (%)
- Epistaxis, treatment-related AE, any grade (phase Ib, SCLC n = 12): 0 n (%)
- Epistaxis, treatment-related AE, grade ≥3 (phase Ib, SCLC n = 12): 0 n (%)
- Fatigue, treatment-related AE, any grade (phase Ib, SCLC n = 12): 4 (33.3) n (%)
- Fatigue, treatment-related AE, grade ≥3 (phase Ib, SCLC n = 12): 1 (8.3) n (%)
- Nausea, treatment-related AE, any grade (phase Ib, SCLC n = 12): 1 (8.3) n (%)
- Nausea, treatment-related AE, grade ≥3 (phase Ib, SCLC n = 12): 0 n (%)
- Number of patients with treatment-related AEs (phase Ib, SCLC n = 12): 11 (91.7) n (%)
- Thrombocytopenia, treatment-related AE, any grade (phase Ib, SCLC n = 12): 5 (41.7) n (%)
- Thrombocytopenia, treatment-related AE, grade ≥3 (phase Ib, SCLC n = 12): 3 (25.0) n (%)
- Vomiting, treatment-related AE, any grade (phase Ib, SCLC n = 12): 2 (16.7) n (%)
- Vomiting, treatment-related AE, grade ≥3 (phase Ib, SCLC n = 12): 0 n (%)
- Weight decrease, treatment-related AE, any grade (phase Ib, SCLC n = 12): 1 (8.3) n (%)
- Weight decrease, treatment-related AE, grade ≥3 (phase Ib, SCLC n = 12): 0 n (%)
- anemia, grade ≥3 treatment-related AE (phase Ib, all 79 patients): 15.2%
- anemia, treatment-related AE (phase Ib, all 79 patients): 22.8%
- decreased appetite, treatment-related AE (phase Ib, all 79 patients): 15.2%
- decreased platelet count, grade ≥3 treatment-related AE (phase Ib, all 79 patients): 11.4%
- decreased platelet count, treatment-related AE (phase Ib, all 79 patients): 25.3%
- diarrhea, treatment-related AE (phase Ib, all 79 patients): 29.1%
- dysgeusia, treatment-related AE (phase Ib, all 79 patients): 19.0%
- fatigue, grade ≥3 treatment-related AE (phase Ib, all 79 patients): 6.3%
- fatigue, treatment-related AE (phase Ib, all 79 patients): 27.8%
- nausea, treatment-related AE (phase Ib, all 79 patients): 12.7%
- thrombocytopenia, grade ≥3 treatment-related AE (phase Ib, all 79 patients): 20.3%
- thrombocytopenia, treatment-related AE (phase Ib, all 79 patients): 31.6%
- vomiting, treatment-related AE (phase Ib, all 79 patients): 12.7%
- ALT increase, treatment-related AE, any grade (phase Ib, mCRPC n = 11): 0 n (%)
- ALT increase, treatment-related AE, grade ≥3 (phase Ib, mCRPC n = 11): 0 n (%)
- Anemia, treatment-related AE, any grade (phase Ib, mCRPC n = 11): 4 (36.4) n (%)
- Anemia, treatment-related AE, grade ≥3 (phase Ib, mCRPC n = 11): 4 (36.4) n (%)
- Decreased appetite, treatment-related AE, any grade (phase Ib, mCRPC n = 11): 4 (36.4) n (%)
- Decreased appetite, treatment-related AE, grade ≥3 (phase Ib, mCRPC n = 11): 1 (9.1) n (%)
- Decreased platelet count, treatment-related AE, any grade (phase Ib, mCRPC n = 11): 3 (27.3) n (%)
- Decreased platelet count, treatment-related AE, grade ≥3 (phase Ib, mCRPC n = 11): 1 (9.1) n (%)
- Diarrhea, treatment-related AE, any grade (phase Ib, mCRPC n = 11): 6 (54.5) n (%)
- Diarrhea, treatment-related AE, grade ≥3 (phase Ib, mCRPC n = 11): 0 n (%)
- Dysgeusia, treatment-related AE, any grade (phase Ib, mCRPC n = 11): 4 (36.4) n (%)
- Dysgeusia, treatment-related AE, grade ≥3 (phase Ib, mCRPC n = 11): 0 n (%)
- Epistaxis, treatment-related AE, any grade (phase Ib, mCRPC n = 11): 2 (18.2) n (%)
- Epistaxis, treatment-related AE, grade ≥3 (phase Ib, mCRPC n = 11): 0 n (%)
- Fatigue, treatment-related AE, any grade (phase Ib, mCRPC n = 11): 4 (36.4) n (%)
- Fatigue, treatment-related AE, grade ≥3 (phase Ib, mCRPC n = 11): 0 n (%)
- Nausea, treatment-related AE, any grade (phase Ib, mCRPC n = 11): 4 (36.4) n (%)
- Nausea, treatment-related AE, grade ≥3 (phase Ib, mCRPC n = 11): 1 (9.1) n (%)
- Number of patients with treatment-related AEs (phase Ib, mCRPC n = 11): 11 (100.0) n (%)
- Thrombocytopenia, treatment-related AE, any grade (phase Ib, mCRPC n = 11): 5 (45.5) n (%)
- Thrombocytopenia, treatment-related AE, grade ≥3 (phase Ib, mCRPC n = 11): 4 (36.4) n (%)
- Vomiting, treatment-related AE, any grade (phase Ib, mCRPC n = 11): 5 (45.5) n (%)
- Vomiting, treatment-related AE, grade ≥3 (phase Ib, mCRPC n = 11): 0 n (%)
- Weight decrease, treatment-related AE, any grade (phase Ib, mCRPC n = 11): 2 (18.2) n (%)
- Weight decrease, treatment-related AE, grade ≥3 (phase Ib, mCRPC n = 11): 0 n (%)
- DLT grade 3 decreased appetite (phase Ib, on treatment): 2.5%
- DLT grade 3 fatigue (phase Ib, on treatment): 3.8%
- DLT grade 3 increased troponin T (phase Ib, on treatment): 2.5%
- DLT grade 4 decreased platelet count (phase Ib, on treatment): 5.1%
- DLT grade 4 thrombocytopenia (phase Ib, on treatment): 10.1%
- total patients with DLTs (phase Ib, schedule C 6.0/3.0 mg, on-treatment period): Phase Ib expansion: total patients with DLTs on BI 894999 (schedule C; 6.0/3.0 mg), n = 3
- AEs leading to death, each (phase Ib, COVID-19, pneumonia, sepsis, delirium, seizure, dyspnea, pulmonary hemorrhage, acute kidney injury): 1.3%
- other AEs leading to dose discontinuation, each (phase Ib, tumor hemorrhage, seizure, dyspnea, laryngeal inflammation, nausea, stomatitis, bladder dilation, urinary retention, increased ALT, increased AST, decreased platelet count, increased alkaline phosphatase): 1.3%
- AEs leading to death (solid tumors phase Ib n = 79): 7 (8.9) n (%)
- AEs leading to discontinuation of trial drug (solid tumors phase Ib n = 79): 11 (13.9) n (%)
- AEs leading to dose reduction (solid tumors phase Ib n = 79): 13 (16.5) n (%)
- Any AE (solid tumors phase Ib n = 79): 79 (100) n (%)
- DLT in on-treatment period (solid tumors phase Ib n = 79): 17 (21.5) n (%)
- Treatment-related AEs (solid tumors phase Ib n = 79): 66 (83.5) n (%)
- Treatment-related serious AEs (solid tumors phase Ib n = 79): 17 (21.5) n (%)
